{
  "source": "patent US11958812B2",
  "about": "“3, 5-disubstituted pyridine and 3, 5-disubstituted pyridazine derivatives and pharmaceutical use of same” (MITSUBISHI TANABE PHARMA CORPORATION, priority 2018, dated 2024)",
  "key": {"[1]": {"test_system": "bleomycin (BLM)-induced lung fibrosis model", "assay": "Mouse bleomycin-induced lung fibrosis model: fibrosis markers in plasma, BALF and lung", "format": "in vivo, female C57BL/6J mouse", "settings": "30 mg/kg, bid, oral, 14 days", "procedure": "[Consideration of Action of ATX Inhibitor on Mouse Bleomycin-Induced Lung Fibrosis Model]\nThe effectiveness of an ATX inhibitor (Example 5, hereinafter to be referred to as example 5 in the Figures) on bleomycin (BLM)-induced lung fibrosis model was evaluated using, as an index, variation of each fibrosis index marker in the plasma or BALF, or fibrosis related genes in the lung.\n8-Week-old mice were grouped in the group constitution shown in Table 24 using a simulation method such that the body weight would become uniform before the previous day of bleomycin administration (SOP/STA/RA-0003). The mice were anesthetized with isoflurane, 0.5 mg/mL of bleomycin solution was intratracheally administered at 50 μL/head to produce a bleomycin-induced lung fibrosis model (1.25 U/kg). In the saline group, physiological saline was administered instead of bleomycin. The ATX inhibitor (Example 5) was orally administered two times per day from the day of bleomycin administration. In addition, the body weight was measured once per day from the day of grouping.\nOne equivalent of a mixture of 1N NaOH and 0.5% CMC solution (100 μL in total) relative to the ATX inhibitor (Example 5) was added, 10 zirconia beads (φ3 mm) were added, and they were pulverized using a mixer mill MM400 (frequency 28.01/min, pulverization time 10 min). 0.5% CMC was added to […] to give a suspension and the suspension was sonicated for 10 min. The administration dose volume was 10 mL/Kg and the administration dose amount was 30 mg/kg. Administration was performed twice per day and the initial administration was performed 30 min before BLM administration.\nanimal species: female C57BL/6J mouse, supply company: CHARLES RIVER LABORATORIES JAPAN, INC., number of animals used: 10 per group (age at arrival: 7 weeks old).\nAt 14 days from the bleomycin administration, plasma, BALF and lung tissue were collected. BALF was recovered and the concentration of LPA (18:2) in BALF (FIG. 6) was measured. After blood was collected from the abdominal vena cava, whole blood was anticoagulated using heparin and centrifuged to collect plasma. Then, the ATX activity (FIG. 5) and SP-D (FIG. 1) in the plasma were measured. Furthermore, the chest was opened and whole lung tissue was collected, and gene expression of each of Col1a1 (FIG. 2), CTGF (FIG. 3) and IL-6 (FIG. 4) in the lung was analyzed. For the gene expression analysis, mRNA was extracted from the lung tissue using TRIzol, reverse transcription was performed using a kit of Life technologies, and qPCR was performed using Tagman probe.\nAn organic solvent and LPA (17:0) solution as an internal standard substance were added to the collected BALF (200 μL), and the mixture was dried to solidness under reduced pressure at 35° C. […] The analysis sample was separated by reversed-phase column and LPA (18:2) was detected by the QTRAP6500 system (ABSciex). In addition, LPA (18:2) synthesis reference standard was added to PBS buffer used for recovery of BALF and compared with the analytical curve sample that underwent a similar pre-treatment, whereby the concentration of LPA (18:2) contained in BALF was calculated (FIG. 6).\nThe difference between the saline group and the BLM administration group and the difference between the BLM administration group and the compound administration group were analyzed by the Student's t-test wherein the significance level was 5% on both sides. […]"}, "human recombinant ATX": {"target": "human recombinant ATX (Homo sapiens, UniProt Q13822)", "assay": "Enzyme inhibition test (choline release from LPC, Amplex UltraRed fluorescence)", "format": "biochemical", "settings": "200 μM LPC substrate, 1 hr at room temperature, read-out: Experimental Example 1 human ATX IC50", "outline": "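Recombinant human ATX (enzyme solution 0.4 ng/µL) acted on a mix of 200 µM LPC, Amplex UltraRed, peroxidase and choline oxidase in Tris pH 8.0 buffer with BSA and 0.0025% Triton X-100, 1 h at room temperature. Choline was read by fluorescence (Ex 525/Em 598 nm) against a choline chloride standard. IC50 came from % inhibition relative to enzyme-free and inhibitor-free controls.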"}},
  "data": [
    {"compound": "COc1ccc(-c2cnnc(OC[C@H]3CC[C@H](C(F)(F)F)CC3)c2)nc1[C@H]1C[C@@H]1C(=O)O", "note": "[Example 5, (1S,2S)-2-[3-methoxy-6-(6-{[trans-4-(trifluoromethyl)cyclohexyl]methoxy}pyridazin-4-yl)pyridin-2-yl]cyclopropanecarboxylic Acid]", "values": [
      {"measurement": "SP-D in the plasma", "setting": "[1]; FIG. 1", "result": "suppressed"},
      {"measurement": "production of LPA (C18:2) in BALF", "setting": "[1]; FIG. 6", "result": "suppressive action"},
      {"measurement": "Col1a1 gene expression in the lung", "setting": "[1]; mRNA in lung tissue, FIG. 2", "result": "expression suppressive action"},
      {"measurement": "CTGF gene expression in the lung", "setting": "[1]; mRNA in lung tissue, FIG. 3", "result": "expression suppressive action"},
      {"measurement": "IL-6 gene expression in the lung", "setting": "[1]; mRNA in lung tissue, FIG. 4", "result": "expression suppressive action"},
      {"measurement": "IC50", "setting": "human recombinant ATX", "result": 1, "unit": "nM"}
    ]}
  ]
}
